The source of these data is PubChem BioAssay AID292 (DTP/NCI, 2004).

Values joined by “and” are separate entries in the source; they are usually repeats but may differ in a detail not shown here. Equal entries are not always repeated. Toxic doses and inconclusive results are not listed.

This assay deals with B6C3F1 mice, ip Sarcoma M5076, median survival T/C. The experiment in a line: NCI In Vivo Anticancer Drug Screen. Data for tumor model Sarcoma M5076 (intraperitoneal) in B6C3F1 mice. To be noted: endpoint: median survival time, higher = longer survival. The method, boiled down: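 Survival measured in treated (T) and vehicle control (C) mice with transplantable tumour; result given as T divided by C.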

The mark [1] stands for this setting: dose: 50.0 mg/kg/injection, schedule: Q04DX004 (ip), vehicle: saline.
Where [2] appears, read: dose: 50.0 mg/kg/injection, schedule: Q04DX004 (ip), vehicle: Klucel (hydroxypropylcellulose) (HPC).
[3] abbreviates: dose: 100.0 mg/kg/injection, schedule: Q04DX004 (ip), vehicle: Klucel (hydroxypropylcellulose) (HPC).
Setting [4] is: dose: 75.0 mg/kg/injection, schedule: Q04DX004 (ip), vehicle: Klucel (hydroxypropylcellulose) (HPC).
[5] abbreviates: dose: 150.0 mg/kg/injection, schedule: Q04DX004 (ip), vehicle: Klucel (hydroxypropylcellulose) (HPC).
[6] abbreviates: dose: 300.0 mg/kg/injection, schedule: Q04DX004 (ip), vehicle: Klucel (hydroxypropylcellulose) (HPC).
Where [7] appears, read: dose: 25.0 mg/kg/injection, schedule: Q04DX004 (ip), vehicle: saline with Tween-80.
The mark [8] stands for this setting: dose: 50.0 mg/kg/injection, schedule: Q04DX004 (ip), vehicle: saline with Tween-80.
Setting [9] is: dose: 100.0 mg/kg/injection, schedule: Q04DX004 (ip), vehicle: saline with Tween-80.
The mark [10] stands for this setting: dose: 200.0 mg/kg/injection, schedule: Q04DX004 (ip), vehicle: saline with Tween-80.
Setting [11] is: dose: 400.0 mg/kg/injection, schedule: Q04DX004 (ip), vehicle: saline with Tween-80.

For the molecule `CN=NN(C)C(=O)NC`, the T/C was 158 % of control (dose: 25.0 mg/kg/injection, schedule: Q04DX004 (ip), vehicle: saline); 160 % of control (dose: 30.0 mg/kg/injection, schedule: Q04DX004 (ip), vehicle: saline); 151 % of control and 152 % of control and 177 % of control under setting [1]; 160 % of control and 162 % of control (dose: 83.0 mg/kg/injection, schedule: Q04DX004 (ip), vehicle: saline).
For the molecule `O=C1CCCCCC2=NC12` (centres undefined), the T/C runs as follows: (dose: 6.25 mg/kg/injection, schedule: Q04DX004 (ip), vehicle: Klucel (hydroxypropylcellulose) (HPC)) 98 % of control; (dose: 12.5 mg/kg/injection, schedule: Q04DX004 (ip), vehicle: Klucel (hydroxypropylcellulose) (HPC)) 100 % of control and 105 % of control; (dose: 25.0 mg/kg/injection, schedule: Q04DX004 (ip), vehicle: Klucel (hydroxypropylcellulose) (HPC)) 105 % of control and 112 % of control; under setting [2], 100 % of control and 113 % of control; under setting [3], 103 % of control and 113 % of control.
For `COc1cc(C(=O)c2cc3c(cc2C)OCO3)cc(OC)c1OC`, the T/C is 97 % of control (dose: 3.75 mg/kg/injection, schedule: Q04DX004 (ip), vehicle: Klucel (hydroxypropylcellulose) (HPC)); 109 % of control (dose: 7.5 mg/kg/injection, schedule: Q04DX004 (ip), vehicle: Klucel (hydroxypropylcellulose) (HPC)); 104 % of control (dose: 15.0 mg/kg/injection, schedule: Q04DX004 (ip), vehicle: Klucel (hydroxypropylcellulose) (HPC)); 105 % of control (dose: 30.0 mg/kg/injection, schedule: Q04DX004 (ip), vehicle: Klucel (hydroxypropylcellulose) (HPC)); 110 % of control (dose: 37.5 mg/kg/injection, schedule: Q04DX004 (ip), vehicle: Klucel (hydroxypropylcellulose) (HPC)); 100 % of control (dose: 60.0 mg/kg/injection, schedule: Q04DX004 (ip), vehicle: Klucel (hydroxypropylcellulose) (HPC)). The T/C under setting [4] is 108 % of control and 114 % of control; the T/C under setting [5] was 113 % of control and 116 % of control; the T/C under setting [6] was 107 % of control.
As for `CC[C@@H](C)[C@@H]1NC(=O)C(NC(=O)C(CC(C)C)N(C)C(=O)C2CCCN2C(=O)C(C)O)C(C)OC(=O)C(Cc2ccc(OC)cc2)N(C)C(=O)C2CCCN2C(=O)C(CC(C)C)NC(=O)C(C)C(=O)C(C(C)C)OC(=O)C[C@H]1O` (some centres undefined), the T/C reads like this: (dose: 0.13 mg/kg/injection, schedule: Q04DX004 (ip), vehicle: distilled water + alcohol) 120 % of control; (dose: 0.36 mg/kg/injection, schedule: Q04DX004 (ip), vehicle: distilled water + alcohol) 171 % of control; (dose: 0.6 mg/kg/injection, schedule: Q04DX004 (ip), vehicle: distilled water + alcohol) 209 % of control; (dose: 45.0 micrograms/kg/injection, schedule: Q04DX004 (ip), vehicle: distilled water + alcohol) 117 % of control; (dose: 90.0 micrograms/kg/injection, schedule: Q04DX004 (ip), vehicle: distilled water + alcohol) 115 % of control.
For the molecule `O=C1NCC(Br)C(=O)N1` (centres undefined), the T/C (dose: 50.0 mg/kg/injection, schedule: Q04DX004 (ip), vehicle: saline + Tween-80 + alcohol) is 95 % of control; the T/C (dose: 100.0 mg/kg/injection, schedule: Q04DX004 (ip), vehicle: saline + Tween-80 + alcohol) is 97 % of control; the T/C (dose: 200.0 mg/kg/injection, schedule: Q04DX004 (ip), vehicle: saline + Tween-80 + alcohol) was 94 % of control; the T/C (dose: 400.0 mg/kg/injection, schedule: Q04DX004 (ip), vehicle: saline + Tween-80 + alcohol) was 120 % of control.
Regarding `COc1ccc(Nc2c3sc4cc(OC)ccc4nc-3c3ccccc3c2=O)cc1`, the T/C is 105 % of control (dose: 37.5 mg/kg/injection, schedule: Q04DX004 (ip), vehicle: saline with Tween-80); 89 % of control (dose: 75.0 mg/kg/injection, schedule: Q04DX004 (ip), vehicle: saline with Tween-80); 86 % of control (dose: 150.0 mg/kg/injection, schedule: Q04DX004 (ip), vehicle: saline with Tween-80).
Consider `CC(C)(C)c1noc2c1C(=O)c1ccccc1-2`, for which the T/C was 102 % of control under setting [7], 105 % of control under setting [8], 100 % of control under setting [9] and 90 % of control under setting [10].
For `C[C@@]12C(=O)OC(=O)[C@]1(C)[C@H]1CC[C@@H]2O1`, the T/C (dose: 125.0 micrograms/kg/injection, schedule: Q01DX009 (ip), vehicle: acetone) was 100 % of control; the T/C (dose: 250.0 micrograms/kg/injection, schedule: Q01DX009 (ip), vehicle: acetone) was 115 % of control; the T/C (dose: 500.0 micrograms/kg/injection, schedule: Q01DX009 (ip), vehicle: acetone) is 116 % of control; the T/C (dose: 1000.0 micrograms/kg/injection, schedule: Q01DX009 (ip), vehicle: acetone) is 100 % of control.
As to `Nc1nc(N)c2cc(C=O)ccc2n1`, the T/C was 91 % of control and 98 % of control (dose: 3.13 mg/kg/injection, schedule: Q04DX004 (ip), vehicle: water); 94 % of control (dose: 6.25 mg/kg/injection, schedule: Q04DX004 (ip), vehicle: water); 101 % of control and 103 % of control (dose: 12.5 mg/kg/injection, schedule: Q04DX004 (ip), vehicle: water); 88 % of control (dose: 50.0 mg/kg/injection, schedule: Q04DX004 (ip), vehicle: water).
Take `O=c1[nH]c2cc3c(cc2n2cccc12)oc1ccccc13`: the T/C under setting [8] is 90 % of control, the T/C under setting [9] was 98 % of control and the T/C under setting [11] is 90 % of control.
As to `O=c1oc2c(O)c(O)cc3c(=O)oc4c(O)c(O)cc1c4c23`, the T/C under setting [4] was 123 % of control; the T/C under setting [5] was 115 % of control; the T/C under setting [6] was 120 % of control; the T/C (dose: 600.0 mg/kg/injection, schedule: Q04DX004 (ip), vehicle: Klucel (hydroxypropylcellulose) (HPC)) was 111 % of control; the T/C (dose: 1200.0 mg/kg/injection, schedule: Q04DX004 (ip), vehicle: Klucel (hydroxypropylcellulose) (HPC)) was 108 % of control.
Take `CCCCCCCCCCCC1C(C#N)C(=O)NC(=O)C1C#N` (centres undefined): the T/C is 104 % of control (dose: 50.0 mg/kg/injection, schedule: Q04DX004 (ip), vehicle: Klucel + Tween-80); 93 % of control (dose: 100.0 mg/kg/injection, schedule: Q04DX004 (ip), vehicle: Klucel + Tween-80); 96 % of control (dose: 200.0 mg/kg/injection, schedule: Q04DX004 (ip), vehicle: Klucel + Tween-80); 93 % of control (dose: 400.0 mg/kg/injection, schedule: Q04DX004 (ip), vehicle: Klucel + Tween-80); 93 % of control (dose: 800.0 mg/kg/injection, schedule: Q04DX004 (ip), vehicle: Klucel + Tween-80).
With `O=CC(NC(=O)N(CCCl)N=O)C(O)C(O)C(O)CO` (centres undefined), the T/C by setting is: (dose: 1.25 mg/kg/injection, schedule: Q04DX005 (ip), vehicle: saline) 319 % of control; (dose: 2.5 mg/kg/injection, schedule: Q04DX005 (ip), vehicle: saline) 319 % of control; (dose: 5.0 mg/kg/injection, schedule: Q04DX005 (ip), vehicle: saline) 319 % of control; (dose: 10.0 mg/kg/injection, schedule: Q04DX005 (ip), vehicle: saline) 319 % of control.
Consider `CCOC(=O)c1c[nH]c2ccc3c(nc(C)n3C)c2c1=O`, for which the T/C under setting [2] was 101 % of control; the T/C under setting [3] was 104 % of control; the T/C (dose: 200.0 mg/kg/injection, schedule: Q04DX004 (ip), vehicle: Klucel (hydroxypropylcellulose) (HPC)) is 101 % of control; the T/C (dose: 400.0 mg/kg/injection, schedule: Q04DX004 (ip), vehicle: Klucel (hydroxypropylcellulose) (HPC)) was 98 % of control; the T/C (dose: 800.0 mg/kg/injection, schedule: Q04DX004 (ip), vehicle: Klucel (hydroxypropylcellulose) (HPC)) was 103 % of control.
Turning to `NCCCNCCCCNC(=O)C(O)NC(=O)CC(O)CCCCN=C(N)N` (centres undefined), the T/C was 117 % of control under setting [1] and 115 % of control (dose: 100.0 mg/kg/injection, schedule: Q04DX004 (ip), vehicle: saline).
`NC(C(=O)O)C1=CCCC1` (centres undefined): the T/C under setting [7] was 102 % of control; the T/C under setting [8] is 99 % of control; the T/C under setting [9] was 98 % of control; the T/C under setting [10] is 98 % of control; the T/C under setting [11] is 87 % of control.
As for `C=C(C)C1C2CC3(C)C4(CO4)C4OC4C3(O)C1C(=O)O2` (centres undefined), the T/C is 96 % of control (dose: 0.25 mg/kg/injection, schedule: Q04DX004 (ip), vehicle: Klucel (hydroxypropylcellulose) (HPC)); 112 % of control (dose: 0.5 mg/kg/injection, schedule: Q04DX004 (ip), vehicle: Klucel (hydroxypropylcellulose) (HPC)); 100 % of control (dose: 1.0 mg/kg/injection, schedule: Q04DX004 (ip), vehicle: Klucel (hydroxypropylcellulose) (HPC)).
